Assay results taken from DBAASP.
Values after ≈ are worked out from the molar mass of the structure shown. Values joined by “and” are separate entries in the source; they are usually repeats but may differ in a detail not shown here. Identical values can stand only once.

Legend:
Assay in all cases: ≥ marks a high value that may be exact or a test limit, other limits are often not marked, values filed in µg/mL are converted to µM
[1] = system: Acinetobacter baumannii ATCC 19606
[2] = system: Enterobacter cloacae ATCC 49141
[3] = system: Enterococcus faecalis ATCC 19433
[4] = system: Escherichia coli ATCC 25922
Escherichia coli D21 = system: Escherichia coli D21
[5] = system: Pseudomonas aeruginosa ATCC 27853
[6] = system: Bacillus anthracis Sterne 34F2
[7] = system: Bacillus subtilis var. niger ATCC 9372
[8] = system: Burkholderia thailandensis
Escherichia coli K91BK = system: Escherichia coli K91BK
[9] = system: Clavibacter michiganensis subsp. michiganensis DSM 46294
[10] = system: Pectobacterium carotovorum subsp. carotovorum DSM 30168
[11] = system: Pseudomonas corrugata DSM 7228
[12] = system: Pseudomonas syringae pv. syringae DSM 10604
[13] = system: Pseudomonas syringae pv. tomato DC3000
[14] = system: Staphylococcus aureus 90857
[15] = system: Xanthomonas vesicatoria DSM 50861
[16] = system: Escherichia coli IFO 3972
[17] = system: Staphylococcus aureus FDA 209P
[18] = system: Neisseria gonorrhoeae F62
[19] = system: Neisseria gonorrhoeae FA19
[20] = system: Candida albicans ATCC 37092
[21] = system: Staphylococcus aureus ATCC 29213
[22] = system: Enterococcus faecalis ATCC 29212
[23] = system: Staphylococcus epidermidis PIA 8400
[24] = system: Bacillus cereus PTCC 1247
[25] = system: Escherichia coli HP101BA 7601c
[26] = system: Klebsiella pneumoniae PTCC 1388
[27] = system: Staphylococcus aureus PTCC 1431
[28] = system: Escherichia coli NCTC 10418
[29] = system: Staphylococcus aureus ATCC 25923
[30] = system: Staphylococcus aureus NCTC 12981

With `CC(C)C[C@H](NC(=O)[C@H](CCCCN)NC(=O)[C@H](CCCCN)NC(=O)[C@H](CC(C)C)NC(=O)[C@H](CC(C)C)NC(=O)[C@H](CCCCN)NC(=O)[C@H](CCCCN)NC(=O)[C@H](CC(C)C)NC(=O)[C@H](CC(C)C)NC(=O)[C@H](CCCCN)NC(=O)[C@H](CCCCN)NC(=O)[C@H](CC(C)C)NC(=O)[C@H](C)NC(=O)[C@H](CC(=O)O)NC(=O)[C@@H](N)CC(=O)O)C(=O)O` [DDALKKLLKKLLKKL] the MIC [1] was 25 µM (≈ 44.2 µg/mL), the MIC [2] was 6.2 µM (≈ 11 µg/mL) and the MIC [3] was ≥ 50 µM. The MIC [4] was 50 µM and 75 µM, the MIC (Escherichia coli D21) was 25 µM (≈ 44.2 µg/mL) and the MIC [5] was 12.5 µM and 25 µM.
With `CC[C@H](C)[C@H](NC(=O)[C@H](CCCN=C(N)N)NC(=O)[C@@H](NC(=O)[C@@H](NC(=O)[C@H](CCCN=C(N)N)NC(=O)[C@H](CC(C)C)NC(=O)[C@@H](NC(=O)[C@@H](NC(=O)[C@@H]1CCCN1C(=O)CNC(=O)[C@H](Cc1ccc(O)cc1)NC(=O)[C@H](CCCCN)NC(=O)[C@H](CCCCN)NC(=O)[C@@H](NC(=O)[C@H](C)NC(=O)[C@H](Cc1cnc[nH]1)NC(=O)[C@@H](NC(=O)[C@@H](NC(=O)[C@H](CCCCN)NC(=O)[C@H](CCCN=C(N)N)NC(=O)CNC(=O)[C@H](CC(C)C)NC(=O)[C@H](CCCN=C(N)N)NC(=O)[C@H](CCCN=C(N)N)NC(=O)[C@H](CC(C)C)NC(=O)[C@H](C)NC(=O)CNC(C)=O)[C@@H](C)CC)[C@@H](C)O)C(C)C)[C@@H](C)O)C(C)C)[C@@H](C)CC)[C@@H](C)CC)C(=O)N[C@@H](C)C(=O)NCC(N)=O` [GALRRLGRKITHAVKKYGPTVLRIIRIAG] the MIC [6] was 1.19 µM (≈ 3.87 µg/mL), the MIC [7] was 1.31 µM (≈ 4.27 µg/mL) and the MIC [8] was ≥ 84.1 µM. The MIC (Escherichia coli K91BK) was 28.7 µM (≈ 93.4 µg/mL).
`CC[C@H](C)[C@H](NC(=O)[C@H](CC(C)C)NC(=O)[C@H](CCCCN)NC(=O)[C@H](CCCCN)NC(=O)[C@H](CC(C)C)NC(=O)[C@@H](NC(=O)[C@H](CCCCN)NC(=O)[C@H](CCCCN)NC(=O)[C@@H](NC(=O)[C@@H](NC(=O)[C@H](CCCN=C(N)N)NC(=O)[C@@H](N)CC(C)C)[C@@H](C)CC)[C@@H](C)CC)[C@@H](C)CC)C(N)=O` [LRIIKKILKKLI] gave an MIC [9] of 0.338 µM (≈ 0.5 µg/mL), an MIC [10] of 1.69 µM (≈ 2.5 µg/mL) and an MIC [11] of 0.338 µM (≈ 0.5 µg/mL). For the same molecule, the MIC [12] was 0.338 µM (≈ 0.5 µg/mL), the MIC [13] was 0.169 µM (≈ 0.25 µg/mL) and the MIC [14] was 3 µM (≈ 4.43 µg/mL). It also gave an MIC [15] of 0.169 µM (≈ 0.25 µg/mL).
`CC(C)[C@H](NC(=O)[C@H](CCCCN)NC(=O)[C@H](CCCN=C(N)N)NC(=O)[C@H](CCCCN)NC(=O)[C@H](CCCCN)NC(=O)[C@H](CCCCN)NC(=O)[C@@H]1CCCN1)C(=O)O` [PKKKRKV] was tested, and the MIC [16] was ≥ 500 µM and the MIC [17] was ≥ 500 µM.
Work on `CC(C)C[C@H](NC(=O)[C@H](CCCNC(=N)N)NC(=O)CNC(=O)CNC(=O)[C@@H](N)CCCNC(=N)N)C(=O)N[C@H]1CSSC[C@@H](C(N)=O)NC(=O)[C@H](C(C)C)NC(=O)[C@@H]2CSSC[C@H](NC(=O)[C@H](Cc3ccc(O)cc3)NC1=O)C(=O)N[C@@H](CCCNC(=N)N)C(=O)N[C@@H](CCCNC(=N)N)C(=O)N[C@@H](CCCNC(=N)N)C(=O)N[C@@H](Cc1ccccc1)C(=O)N2` [RGGRLCYCRRRFCVC] yielded an MIC [18] of 0.58 µM (≈ 1.07 µg/mL) and an MIC [19] of 4.11 µM (≈ 7.58 µg/mL).
`CC[C@H](C)[C@H](NC(=O)[C@H](CCCN=C(N)N)NC(=O)[C@@H](N)CCCN=C(N)N)C(=O)N[C@@H](CCCN=C(N)N)C(=O)N1CCC[C@H]1C(=O)N[C@@H](CCCN=C(N)N)C(=O)N1CCC[C@H]1C(=O)N1CCC[C@H]1C(=O)N[C@@H](CCCN=C(N)N)C(=O)N[C@@H](CC(C)C)C(=O)N1CCC[C@H]1C(=O)N[C@@H](CCCN=C(N)N)C(=O)N1CCC[C@H]1C(=O)N[C@@H](CCCN=C(N)N)C(=O)N1CCC[C@H]1C(=O)N[C@@H](CCCN=C(N)N)C(=O)N1CCC[C@H]1C(=O)N[C@@H](CC(C)C)C(=O)N1CCC[C@H]1C(=O)N[C@@H](Cc1ccccc1)C(=O)N1CCC[C@H]1C(=O)N[C@@H](CCCN=C(N)N)C(=O)N1CCC[C@H]1C(=O)NCC(=O)O` [RRIRPRPPRLPRPRPRPLPFPRPG] was tested, and the MIC [20] was 1.12 µM (≈ 3.29 µg/mL), the MIC [4] was 0.45 µM (≈ 1.32 µg/mL) and the MIC [21] was 2.6 µM (≈ 7.64 µg/mL).
`CC[C@H](C)[C@H](NC(=O)[C@H](Cc1c[nH]c2ccccc12)NC(=O)[C@@H](NC(=O)[C@@H](NC(=O)[C@H](Cc1c[nH]c2ccccc12)NC(=O)[C@H](CCCCN)NC(=O)[C@H](CCCCN)NC(=O)[C@@H](NC(=O)[C@@H](N)CCCN=C(N)N)[C@@H](C)O)[C@@H](C)CC)C(C)C)C(N)=O` [RTKKWIVWI] was tested, and the MIC [22] was 55.3 µM and 110 µM, the MIC [4] was 13.8 µM (≈ 17 µg/mL) and the MIC [21] was 27.7 µM (≈ 34 µg/mL). It also gave an MIC [23] of 13.8 µM (≈ 17 µg/mL).
Work on `CC[C@H](C)[C@H](NC(=O)[C@H](Cc1cnc[nH]1)NC(=O)[C@H](CCC(N)=O)NC(=O)[C@H](CCSC)NC(=O)[C@H](CCSC)NC(=O)[C@H](CCC(=O)O)NC(=O)[C@H](C)NC(=O)[C@H](C)NC(=O)[C@@H](NC(=O)[C@H](CO)NC(=O)[C@H](C)NC(=O)[C@@H](NC(=O)[C@H](Cc1ccccc1)NC(=O)[C@@H]1CCCN1C(=O)[C@@H](NC(=O)[C@@H](N)C(C)C)[C@@H](C)CC)C(C)C)C(C)C)C(=O)N[C@@H](Cc1ccccc1)C(=O)N[C@H]1CSSC[C@@H](C(=O)O)NC(=O)[C@H](CCCCN)NC(=O)[C@H](CCCN=C(N)N)NC(=O)[C@H](CO)NC(=O)[C@H](C)NC(=O)[C@H](C)NC1=O` [VIPFVASVAAEMMQHIFCAASRKC] yielded an MIC [24] of 4.6 µM (≈ 12 µg/mL), an MIC [25] of 3.06 µM (≈ 7.99 µg/mL) and an MIC [26] of 5.36 µM (≈ 14 µg/mL). For the same molecule, the MIC [27] was 6.51 µM (≈ 17 µg/mL).
In the case of `NC(=O)[C@H](Cc1c[nH]c2ccccc12)NC(=O)[C@H](CCCN=C(N)N)NC(=O)[C@H](Cc1c[nH]c2ccccc12)NC(=O)[C@H](CCCN=C(N)N)NC(=O)[C@@H](N)Cc1c[nH]c2ccccc12` [WRWRW], the MIC [4] is reported as 16.9 µM (≈ 15 µg/mL), the MIC [28] is reported as ≥ 72 µM and the MIC [5] is reported as 56.2 µM (≈ 49.9 µg/mL). The MIC [29] was 11.2 µM (≈ 9.99 µg/mL) and the MIC [30] was ≥ 72 µM.
